Measured values from article PMC2994023 (Interdisciplinary Toxicology, 2010).

Tests used:
[1] = Incubation of N-(2-methoxyphenyl)hydroxylamine without hepatic microsomal enzymes or without NADPH (spontaneous conversion); format: physicochemical; conditions: pH 7.4, without hepatic microsomal enzymes or without NADPH
Procedure: At pH 7.4, used for microsomal incubations, their spontaneous formation was negligible.

[2] = system: rat hepatic microsomes; experiment: Metabolism of N-(2-methoxyphenyl)hydroxylamine by hepatic microsomes of control (uninduced) rats, HPLC of metabolites; format: in vitro ADME; conditions: 1.0 mM substrate
Procedure: (§1) The study was conducted in accordance with the Regulations for the Care and Use of Laboratory Animals (311/1997, Ministry of Agriculture, Czech Republic), which complies with Declaration of Helsinki. Microsomes from livers of ten untreated rats and three rabbits were prepared by the procedure described previously (Stiborová et al., [1988]). Microsomes from the livers of ten male Wistar rats pretreated with β-NF (Stiborová et al., [1988]) were isolated as described (Stiborová et al., [1988]; [1995]), those pretreated with phenobarbital (PB) as reported by Hodek et al. ([1988]), and those pretreated with ethanol were isolated using a procedure described by Yang et al. ([1985]). Protein concentrations in the microsomal fractions were assessed using the bicinchoninic acid protein assay with bovine serum albumin as a standard (Wiechelman et al., [1988]). The concentration of CYP was estimated according to Omura and Sato ([1964]), by measuring the absorption of the complex of reduced CYP with carbon monoxide. […] The activity of NADPH:CYP reductase in rat hepatic microsomes was measured according to Sottocasa et al. ([1967]) using cytochrome c as substrate (i.e., as NADPH:cytochrome c reductase).

[3] = system: rat hepatic microsomes enriched with CYP2E1; experiment: Metabolism of N-(2-methoxyphenyl)hydroxylamine by hepatic microsomes of rats pre-treated with ethanol; format: in vitro ADME
Procedure: as §1

[4] = system: CYP; experiment: CYP concentration in hepatic microsomes of induced rats (CO complex of reduced CYP); conditions: hepatic microsomes of rats induced with the agent
Procedure: as §1

[5] = system: NADPH:CYP reductase; experiment: NADPH:CYP reductase activity in hepatic microsomes of induced rats (cytochrome c as substrate); conditions: hepatic microsomes of rats induced with the agent
Procedure: as §1

[6] = system: Sacchromyces cerevisiae; conditions: ref Brennan and Schiestl ([1997]); cited from earlier work

## COc1ccccc1NO [N-(2-methoxyphenyl)hydroxylamine]
[1]
  spontaneous formation of metabolite M1 and o-aminophenol: negligible
[2]
  formation of metabolite M1: negligible
[3]
  change of levels of o-anisidine versus control microsomes: decreased

## CCC1(c2ccccc2)C(=O)NC(=O)NC1=O [PB, phenobarbital]
[4]
  CYP content of hepatic microsomes: 2.7 nmol CYP/mg protein
[5]
  NADPH:CYP reductase activity in hepatic microsomes: 0.325 µmol/min/mg protein

## CCO [ethanol]
[4]
  CYP content of hepatic microsomes: 1.8 nmol CYP/mg protein
[5]
  NADPH:CYP reductase activity in hepatic microsomes: 0.201 µmol/min/mg protein

## Nc1ccccc1O [o-aminophenol]
[6]
  result in the deletion recombination assay: positive

## O=c1cc(-c2ccccc2)oc2ccc3ccccc3c12 [β-NF, β-naphthoflavone]
[4]
  CYP content of hepatic microsomes: 1.3 nmol CYP/mg protein
[5]
  NADPH:CYP reductase activity in hepatic microsomes: 0.199 µmol/min/mg protein
